Data set [1] relates to LPS-induced TNFα release in THP-1 cells. In words: LPS-induced TNFα release in THP-1 cells. The data set is classed as cell-based. The note with it: Homo sapiens, 3 μg/mL LPS, 4 hr. How it is done: Cellular Potency as Determined by LPS-Induced TNFα Release in THP-1 Cells
THP-1 cells, a human monocytic cell line, were stimulated with 3 μg/mL of LPS (from E. Coli; 0111:B4, Sigma) for 4 hr and the supernatant collected for determination of the TNFα concentration by sandwich ELISA (Duo-set, R&D systems). The inhibition of TNFα production was calculated at each concentration by comparison with vehicle control. The 50% inhibitory concentration (IC50) was determined from the resultant concentration-response curve.

Data set [2] concerns the target T1, p38 MAPKα isoform (MAPK14: Invitrogen) (Homo sapiens, UniProt Q16539).
T1 construct: purchased Invitrogen
In words: p38 MAPKα enzyme inhibition assay (FRET, Z-LYTE, via MAPKAP-K2 activation). The data set is classed as biochemical. The note with it: 2 hr pre-incubation, ATP 10.0 μM; read-out: Enzyme Inhibition IC50 p38α.

The test system of data set [3] is Poly I:C-induced ICAM-1 expression in BEAS2B cells. The experiment in a line: Poly I:C-induced ICAM-1 induction in BEAS2B cells. The data set is classed as cell-based. The following applies: Homo sapiens, BEAS-2B, poly I:C 1 μg/mL, 18 hr, read-out: PolyI:C/ICAM1 IC50 BEAS2B. How it is done: Cellular Potency as Determined by Poly I:C-Induced ICAM-1 Induction in BEAS2B Cells
Poly I:C (1 μg/mL) (Invivogen Ltd., San Diego, Calif.) was transfected into BEAS2B cells (human bronchial epithelial cells, ATCC) with Oligofectamine (Invitrogen, Carlsbad, Calif.). Cells were pre-incubated with final concentrations of test compounds for 2 hr and the level of ICAM1 expression on the cell surface was determined by cell-based ELISA. At a time point 18 hr after poly I:C transfection, cells were fixed with 4% formaldehyde in PBS and then endogenous peroxidase was quenched by the addition of 0.1% sodium azide and 1% hydrogen peroxide. Cells were washed with wash-buffer (0.1% Tween in PBS: PBS-Tween). and after blocking the wells with 5% milk in PBS-Tween for 1 hr, the cells were incubated with anti-human ICAM-1 antibody (Cell Signaling Technology, Danvers, Mass.) in 1% BSA PBS overnight at 4° C. The cells were washed with PBS-Tween and incubated with the secondary antibody (HRP-conjugated anti-rabbit IgG, Dako Ltd., Glostrup, Denmark). The ICAM-1 signal was detected by adding substrate and reading the absorbance at 450 nm against a reference wavelength of 655 nm using a spectrophotometer. The cells were then washed with PBS-Tween and total cell numbers in each well were determined by reading absorbance at 595 nm after Crystal Violet staining and elution by 1% SDS solution. The measured OD 450-655 readings were corrected for cell number by dividing with the OD595 reading in each well. The inhibition of ICAM-1 expression was calculated at each concentration of test compound by comparison with vehicle control. The 50% inhibitory concentration (IC50) was determined from the resultant concentration-response curve.

In data set [4] the target is T2, Recombinant, phosphorylated p38 MAPKγ (MAPK12:Invitrogen) (Homo sapiens, UniProt P53778).
T2 construct: purchased Invitrogen
T2 sequence (P53778 1-367): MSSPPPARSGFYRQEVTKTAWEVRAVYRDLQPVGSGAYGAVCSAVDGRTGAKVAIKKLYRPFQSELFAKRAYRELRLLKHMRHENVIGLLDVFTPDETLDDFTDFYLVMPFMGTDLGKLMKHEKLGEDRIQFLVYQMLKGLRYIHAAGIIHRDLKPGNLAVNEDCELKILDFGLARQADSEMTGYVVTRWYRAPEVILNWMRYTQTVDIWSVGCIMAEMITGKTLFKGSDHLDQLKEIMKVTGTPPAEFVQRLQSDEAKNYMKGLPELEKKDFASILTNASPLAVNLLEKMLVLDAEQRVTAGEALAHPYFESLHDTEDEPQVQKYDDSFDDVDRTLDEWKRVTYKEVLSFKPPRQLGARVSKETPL
In words: p38 MAPKγ enzyme inhibition assay (FRET, Z-LYTE). The note with it: 2 hr pre-incubation, ATP 100 μM; read-out: Enzyme Inhibition IC50 p38γ. The data set is classed as biochemical.
Description: The enzyme inhibitory activities of compounds disclosed herein were determined by fluorescence resonance energy transfer (FRET) using synthetic peptides labelled with both donor and acceptor fluorophores (Z-LYTE, Invitrogen Ltd., Paisley, UK). Recombinant, phosphorylated p38 MAPKγ (MAPK12:Invitrogen) was diluted in HEPES buffer, mixed with the test compound at the desired final concentrations and incubated for 2 hr at RT. The FRET peptide (2 μM) and ATP (100 μM) were added to the enzyme/compound mixture and incubated for 1 hr. Development reagent (protease) was added for 1 hr prior to detection in a fluorescence microplate reader (Varioskan® Flash, ThermoFisher Scientific). The site-specific protease cleaves non-phosphorylated peptide only and eliminates the FRET signal. Phosphorylation levels of each reaction were calculated using the ratio of coumarin emission (donor) over fluorescein emission (acceptor) for which high ratios indicate high phosphorylation and low ratios indicate low phosphorylation levels.

In data set [5] the test system is Differentiated U937 cells. In words: MTT assay: cell viability on exposure to test compounds. The format is cell-based, human. The note with it: percentage loss of cell viability vs vehicle, 1 μg/mL; for MTT Assay (Viability) 4 h d-U937: 5% FCS; for MTT Assay (Viability) 24 h d-U937: 10% FCS. How it is done:
MTT Assay: Determination of Cell Viability on Exposure to Test Compounds
Differentiated U937 cells were pre-incubated with each test compound under two protocols: the first for 4 hr in 5% FCS and the second in 10% FCS for 24 h. The supernatant was replaced with 200 μL of new media and 10 μL of MTT stock solution (5 mg/mL) was added to each well. After incubation for 1 hr the media were removed, 200 μL of DMSO was added to each well and the plates were shaken lightly for 1 hr prior to reading the absorbance at 550 nm. The percentage loss of cell viability was calculated for each well relative to vehicle (0.5% DMSO) treatment. Consequently an apparent increase in cell viability for drug treatment relative to vehicle is tabulated as a negative percentage.

In data set [6] the test system is LPS-induced IL-8 release in d-U937 cells. The experiment in a line: LPS-induced IL-8 release in d-U937 cells. The following applies: Homo sapiens, dU937, 0.1 μg/mL LPS, 4 hr. The format is cell-based. How it is done: (§1) Cellular Potency as Determined by LPS-Induced TNFα/IL-8 Release in d-U937Cells
(§2) U937 cells, a human monocytic cell line, were differentiated to macrophage-type cells by incubation with phorbol myristate acetate (PMA; 100 ng/mL) for 48 to 72 hr. Cells were pre-incubated with final concentrations of test compound for 2 hr and were then stimulated with 0.1 μg/mL of LPS (from E. Coli: O111:B4, Sigma) for 4 hr. The supernatant was collected for determination of TNFα and IL-8 concentrations by sandwich ELISA (Duo-set, R&D systems). […] The relative 50% effective concentration (REC50) was determined from the resultant concentration-response curve. The inhibition of IL-8 production was calculated at each concentration of test compound by comparison with vehicle control. The 50% inhibitory concentration (IC50) was determined from the resultant concentration-response curve.

The test system of data set [7] is LPS-induced TNFα release in d-U937 cells. The experiment in a line: LPS-induced TNFα release in d-U937 cells. The data set is classed as cell-based. The following applies: Homo sapiens, dU937, 4 h; read-out: LPS/TNFα REC50 d-U937. The procedure:
as §1, §2

T1 sequence (Q16539 whole entry, canonical isoform): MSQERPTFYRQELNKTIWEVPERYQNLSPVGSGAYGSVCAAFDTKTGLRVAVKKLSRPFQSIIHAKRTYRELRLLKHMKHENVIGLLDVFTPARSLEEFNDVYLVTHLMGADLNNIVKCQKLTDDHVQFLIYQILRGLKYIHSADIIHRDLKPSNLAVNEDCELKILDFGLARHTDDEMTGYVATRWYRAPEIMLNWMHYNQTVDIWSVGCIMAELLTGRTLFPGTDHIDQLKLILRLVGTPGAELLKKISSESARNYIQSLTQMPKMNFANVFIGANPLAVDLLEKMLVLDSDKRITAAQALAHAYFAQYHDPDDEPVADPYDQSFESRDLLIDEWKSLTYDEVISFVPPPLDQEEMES

With `COc1ccc(-n2nc(C(C)(C)C)cc2NC(=O)Nc2ccc(Oc3ccnc(NC(=O)N4CCCC4)c3)c3ccccc23)cc1` [Example 8, N-(4-(4-(3-(3-tert-Butyl-1-(4-methoxyphenyl)-1H-pyrazol-5-yl)ureido)naphthalen-1-yloxy)pyridin-2-yl)pyrrolidine-1-carboxamide], the IC50 was 1.6 nM in data set [1]; 16.6 nM in data set [2]; 1.4 nM in data set [3]; 228 nM in data set [4]; 1.2 nM in data set [6]. Further, the “MTT Assay (Viability) 4 h d-U937” value in data set [5] is listed as −20.1%. Further, the “MTT Assay (Viability) 24 h d-U937” value in data set [5] is −77.9%. Moreover, the EC50 in data set [7] was found to be 0.6 nM.

As to `COc1ccc(-n2nc(C(C)(C)C)cc2NC(=O)Nc2ccc(Oc3ccnc(NC(=O)N4CCOCC4)c3)c3ccccc23)cc1` [Example 9, N-(4-((4-(3-(3-tert-Butyl-1-(4-methoxyphenyl)-1H-pyrazol-5-yl)ureido)naphthalen-1-yl)oxy)pyridin-2-yl)morpholine-4-carboxamide], the IC50 in data set [1] came out at 0.5 nM; in data set [2], 2.7 nM; in data set [3], 2.1 nM; in data set [4], 203 nM; in data set [6], 1.4 nM. For the same compound, the “MTT Assay (Viability) 4 h d-U937” value in data set [5] is on record as −5.7%. Further, the “MTT Assay (Viability) 24 h d-U937” value in data set [5] is 18.6%. In addition, the EC50 in data set [7] amounted to 0.6 nM.

In the case of `COc1ccc(-n2nc(C(C)(C)C)cc2NC(=O)Nc2ccc(Oc3ccnc(NC(=O)N4CCN(C)CC4)c3)c3ccccc23)cc1` [Example 10, N-(4-(4-(3-(3-tert-Butyl-1-(4-methoxyphenyl)-1H-pyrazol-5-yl)ureido)naphthalen-1-yloxy)pyridin-2-yl)-4-methyl piperazine-1-carboxamide], the IC50 was 1.6 nM in data set [1]; 4.7 nM in data set [2]; 3.5 nM in data set [3]; 104 nM in data set [4]; 2.3 nM in data set [6]. Moreover, the “MTT Assay (Viability) 4 h d-U937” value in data set [5] is −12.5%. Further, in data set [5], the “MTT Assay (Viability) 24 h d-U937” value is recorded as −21.2%. The EC50 in data set [7] was 1.5 nM.

Take `COCC(=O)Nc1cc(Oc2ccc(NC(=O)Nc3cc(C(C)(C)C)nn3-c3ccc(OC)c(OC)c3)c3ccccc23)ccn1` [Example 11, N-(4-(4-(3-(3-tert-Butyl-1-(3,4-dimethoxyphenyl)-1H-pyrazol-5-yl)ureido)naphthalen-1-yloxy)pyridin-2-yl)-2-methoxyacetamide]: the IC50 in data set [1] came out at 0.6 nM; in data set [2], 4 nM; in data set [3], 2.5 nM; in data set [4] it was 151 nM; in data set [6], 3.6 nM. For the same compound, the “MTT Assay (Viability) 4 h d-U937” value in data set [5] was −9.3%. Further, the “MTT Assay (Viability) 24 h d-U937” value in data set [5] is listed as −0.8%. In addition, in data set [7], the EC50 turned out to be 0.2 nM.

With `CC(C)(C)c1cc(NC(=O)Nc2ccc(Oc3ccnc(NC(=O)N4CCOCC4)c3)c3ccccc23)n(-c2ccc(O)c(Cl)c2)n1` [Example 12, N-(4-((4-(3-(3-(tert-Butyl)-1-(3-chloro-4-hydroxyphenyl)-1H-pyrazol-5-yl)ureido)naphthalen-1-yl)oxy)pyridin-2-yl)morpholine-4-carboxamide], the IC50 in data set [1] came to 3.3 nM; in data set [2], 2.7 nM; in data set [3] it was 3.2 nM; in data set [4], 147 nM; in data set [6], 8.4 nM. Further, the “MTT Assay (Viability) 4 h d-U937” value in data set [5] is listed as −6.2%. The “MTT Assay (Viability) 24 h d-U937” value in data set [5] is listed as −42.9%. Also, in data set [7], the EC50 was 0.4 nM.

With `CSc1ccc(-n2nc(C(C)(C)C)cc2NC(=O)Nc2ccc(Oc3ccnc(NC(=O)N4CCCC4)c3)c3ccccc23)cc1` [Example 14, N-(4-(4-(3-(3-tert-Butyl-1-(4-(methylthio)phenyl)-1H-pyrazol-5-yl)ureido)naphthalen-1-yloxy)pyridin-2-yl)pyrrolidine-1-carboxamide], the IC50 in data set [1] is 3.2 nM; in data set [2] it was 17 nM; in data set [3] it was 1.9 nM; in data set [4], 400 nM; in data set [6], 7.3 nM. Also, the “MTT Assay (Viability) 4 h d-U937” value in data set [5] was −0.4%. Also, in data set [5], the “MTT Assay (Viability) 24 h d-U937” value was −50.0%. Moreover, the EC50 in data set [7] was found to be 0.6 nM.

Take `COCC(=O)Nc1cc(Oc2ccc(NC(=O)Nc3cc(C(C)(C)C)nn3-c3ccc(O)nc3)c3ccccc23)ccn1.Cl` [Example 17, N-(4-(4-(3-(3-tert-Butyl-1-(6-hydroxypyridin-3-yl)-1H-pyrazol-5-yl)ureido)naphthalen-1-yloxy)pyridin-2-yl)-2-methoxyacetamide]: the IC50 in data set [1] was 2 nM; in data set [2], 14.3 nM; in data set [3], 25.3 nM; in data set [4], 76.3 nM; in data set [6], 24.5 nM. The “MTT Assay (Viability) 4 h d-U937” value in data set [5] is −6.1%. Further, the “MTT Assay (Viability) 24 h d-U937” value in data set [5] is on record as −7.6%. Besides, in data set [7], the EC50 worked out at 1.4 nM.

With `COCC(=O)Nc1cc(Oc2ccc(NC(=O)Nc3cc(C(C)(C)C)nn3-c3cc(C)cs3)c3ccccc23)ccn1` [Example 18, N-(4-(4-(3-(3-tert-Butyl-1-(4-methylthiophen-2-yl)-1H-pyrazol-5-yl)ureido)naphthalen-1-yloxy)pyridin-2-yl)-2-methoxyacetamide], the IC50 in data set [1] amounted to 1.2 nM; in data set [2], 8.8 nM; in data set [3], 3.7 nM; in data set [4], 95.5 nM; in data set [6], 40 nM. Also, in data set [5], the “MTT Assay (Viability) 4 h d-U937” value was determined as 8.2%. In addition, in data set [5], the “MTT Assay (Viability) 24 h d-U937” value is reported as −2.9%. In addition, in data set [7], the EC50 is 0.7 nM.

Consider `COCC(=O)Nc1cc(Oc2ccc(NC(=O)Nc3cc(-c4ccccc4)nn3-c3ccccc3)c3ccccc23)ccn1` [Example 19, N-(4-((4-(3-(1,3-Diphenyl-1H-pyrazol-5-yl)ureido)naphthalen-1-yl)oxy)pyridin-2-yl)-2-methoxyacetamide], for which the IC50 came out at 1.8 nM in data set [1]; 0.4 nM in data set [2]; 369 nM in data set [3]; 261 nM in data set [4]; 24.5 nM in data set [6]. In addition, in data set [5], the “MTT Assay (Viability) 4 h d-U937” value was −1.7%. Besides, in data set [5], the “MTT Assay (Viability) 24 h d-U937” value is given as −11.7%. Further, the EC50 in data set [7] amounted to 8.1 nM.

These data come from US9024041B2, “P38 MAP kinase inhibitors” (Respivert Ltd., priority 2010, dated 2015).
